Our source for the IC50 values is patent publication US20240059677A1, “SUBSTITUTED PYRIMIDINE DERIVATIVES AS NICOTINIC ACETYLCHOLINESTERASE RECEPTOR ALPHA 6 MODULATOR” (priority 2020, published 2024).

pIC50: −log10 of the molar value.

By pIC50 is commonly meant the IC50 on a negative log10 scale, so that one unit is a factor of ten.

T1 sequence (Q05901 25-458 V273S): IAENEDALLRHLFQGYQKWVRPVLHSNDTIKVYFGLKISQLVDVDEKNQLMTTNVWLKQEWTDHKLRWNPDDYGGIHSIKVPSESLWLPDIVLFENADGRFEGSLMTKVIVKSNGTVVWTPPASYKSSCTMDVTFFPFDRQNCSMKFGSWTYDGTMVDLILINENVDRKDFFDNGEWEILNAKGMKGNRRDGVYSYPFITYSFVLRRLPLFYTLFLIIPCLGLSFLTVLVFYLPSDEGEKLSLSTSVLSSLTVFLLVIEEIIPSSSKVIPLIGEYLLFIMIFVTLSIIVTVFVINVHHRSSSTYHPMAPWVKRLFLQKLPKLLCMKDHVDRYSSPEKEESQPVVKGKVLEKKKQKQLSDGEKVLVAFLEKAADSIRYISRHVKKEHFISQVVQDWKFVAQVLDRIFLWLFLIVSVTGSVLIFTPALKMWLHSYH
T1 sequence (P17787 26-502, stated change not applied, further chain): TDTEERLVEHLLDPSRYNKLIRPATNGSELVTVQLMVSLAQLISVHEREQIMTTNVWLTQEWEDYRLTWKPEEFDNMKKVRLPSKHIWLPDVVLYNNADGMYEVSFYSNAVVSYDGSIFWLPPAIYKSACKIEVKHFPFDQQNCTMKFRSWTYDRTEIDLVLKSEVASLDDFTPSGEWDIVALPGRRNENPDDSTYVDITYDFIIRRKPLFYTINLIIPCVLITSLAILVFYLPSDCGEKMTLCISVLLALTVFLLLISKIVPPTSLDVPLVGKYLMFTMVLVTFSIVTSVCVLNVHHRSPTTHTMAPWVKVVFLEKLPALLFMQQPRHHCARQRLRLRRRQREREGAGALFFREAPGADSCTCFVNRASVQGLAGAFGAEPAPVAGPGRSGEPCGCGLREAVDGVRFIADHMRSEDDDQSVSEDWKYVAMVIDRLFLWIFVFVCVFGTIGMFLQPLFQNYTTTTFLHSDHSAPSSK
T1 sequence (Q15825+P32297 fused with the stated changes): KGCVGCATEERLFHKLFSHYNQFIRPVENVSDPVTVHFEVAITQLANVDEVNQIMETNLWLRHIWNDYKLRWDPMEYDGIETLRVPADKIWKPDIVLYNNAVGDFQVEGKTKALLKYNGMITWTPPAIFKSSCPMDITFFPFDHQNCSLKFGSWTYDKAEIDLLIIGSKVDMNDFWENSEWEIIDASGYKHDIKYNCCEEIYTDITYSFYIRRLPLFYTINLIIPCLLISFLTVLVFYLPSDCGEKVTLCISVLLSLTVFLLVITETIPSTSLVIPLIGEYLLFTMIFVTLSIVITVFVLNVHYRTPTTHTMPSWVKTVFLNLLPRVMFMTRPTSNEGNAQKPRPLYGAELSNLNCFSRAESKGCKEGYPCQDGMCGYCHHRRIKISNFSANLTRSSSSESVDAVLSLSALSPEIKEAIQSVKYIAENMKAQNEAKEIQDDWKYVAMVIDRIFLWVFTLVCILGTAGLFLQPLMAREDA

The test concerns the target T1, human nAChRα6-α3 chimera, in addition to β2 and β3^V273S subunits (Homo sapiens, UniProt P32297+Q15825).
T1 construct: expressed in transfected cells
Briefly: fluorescence-based calcium assay: inhibition of nicotine stimulated nAChRα6 activity (FLIPR). The note with it: HEK cell line stably expressing the receptor; 10 min pre-incubation, nicotine EC80; 10-point curve, duplicate wells; read-out: IC50. How it is done: The ability of the test compounds to inhibit nicotine stimulated nAChRα6 activity was determined in a fluorescence-based calcium assay. Compound activity was determined using a HEK cell line stably expressing a human nAChRα6-α3 chimera, in addition to β2 and β3^V273S subunits (as in Capelli et al, Br J Pharmacol 163(2): 313-29 2011). In this cell line, nicotine stimulated an increase in intracellular calcium concentration, measured as an increase in fluorescence when cells were incubated with a calcium sensitive dye. Test compounds were pre-incubated with cells prior to nicotine stimulation to detect any reduction in the magnitude of the nicotine response.
The day prior to the assay, compounds were serially diluted in DMSO (200× final assay concentration (FAC)), in 384-well plates which were then stored in the dark at room temperature (RT) until use. Cells were seeded at 20 k/well in black, poly-D-lysine coated, clear bottom 384-well plates and incubated for 4 hours at 37° C., followed by overnight incubation at 30° C. The following day, the DMSO compound plate was diluted 1:20 (10×FAC) in assay buffer (HEPES buffered saline solution with 10 mM HEPES, 0.1% bovine serum albumin, 1 mM probenecid). A nicotine solution was prepared in assay buffer (7×FAC) and dispensed into a 384-well plate. The growth media was removed from the cell plate, replaced with 53 μl calcium dye/well (Calcium 5; Molecular Devices) and the plate incubated at 30° C. for 45 minutes. Test compounds were then added to the cells (7 μl of 10×FAC) and incubated for 10 minutes, after which nicotine EC80 (10 μl of 7×FAC) was added and changes in fluorescence measured using a FLIPR plate reader (Molecular Devices).
Compound activity was examined using a 10-point, half-log concentration-response range and each concentration was tested in duplicate wells.
In the case of `COc1ccc(-c2nnc(NCC3CCCN3C)nc2C)c(F)c1` (racemic) [Example 18, 6-(2-fluoro-4-methoxyphenyl)-5-methyl-N-((1-methylpyrrolidin-2-yl)methyl)-1,2,4-triazin-3-amine], the pIC50 was 6.28.
Turning to `Cc1nc(N[C@@H]2CNC[C@@H]2F)ncc1-c1ccc(C(F)(F)F)cc1F` (relative stereo) [Example 112, N-((cis)-4-fluoropyrrolidin-3-yl)-5-(2-fluoro-4-(trifluoromethyl)phenyl)-4-methyl-pyrimidin-2-amine], the pIC50 was 6.97.
Consider `Cc1nc(N[C@H]2CNC[C@@H]2F)ncc1-c1ccc(C(F)(F)F)cc1F` (relative stereo) [Example 114, N-((trans)-4-fluoropyrrolidin-3-yl)-5-(2-fluoro-4-(trifluoromethyl)phenyl)-4-methyl-pyrimidin-2-amine], for which the pIC50 was 6.85.
Under `COc1ccc(-c2nnc(NCC3CCCN3C)nc2C)c(F)c1` (single isomer, unassigned) [Example 18a, 6-(2-fluoro-4-methoxyphenyl)-5-methyl-N-((1-methylpyrrolidin-2-yl)methyl)-1,2,4-triazin-3-amine] stands 6.48; under `COc1ccc(-c2nnc(NCC3CCCN3C)nc2C)c(F)c1` (single isomer, unassigned) [Example 18b, 6-(2-fluoro-4-methoxyphenyl)-5-methyl-N-((1-methylpyrrolidin-2-yl)methyl)-1,2,4-triazin-3-amine], 6.35; under `COc1ccc(-c2cnc(NCC3CCCN3C)nc2C)c(F)c1` (single isomer, unassigned) [Example 28a, 5-(2-fluoro-4-methoxyphenyl)-4-methyl-N-((1-methylpyrrolidin-2-yl)methyl)pyrimidin-2-amine], 7.27.
Turning to `COc1ccc(-c2cnc(NCC3CCCN3C)nc2C)c(F)c1` (single isomer, unassigned) [Example 28b, 5-(2-fluoro-4-methoxyphenyl)-4-methyl-N-((1-methylpyrrolidin-2-yl)methyl)pyrimidin-2-amine], the pIC50 is 8.00.
The figure for `COc1ccc(-c2cnc(NC3CCC(N(C)C)C3)nc2C#N)c(F)c1` (single isomer, unassigned) [Example 38a, 2-((3-(dimethylamino)cyclopentyl)amino)-5-(2-fluoro-4-methoxyphenyl) pyrimidine-4-carbonitrile] is 7.23; for `COc1ccc(-c2cnc(NC3CCC(N(C)C)C3)nc2C#N)c(F)c1` (single isomer, unassigned) [Example 38b, 2-((3-(dimethylamino)cyclopentyl)amino)-5-(2-fluoro-4-methoxyphenyl) pyrimidine-4-carbonitrile] it is 7.15; for `Cc1nc(NC2CCCC(N(C)C)C2)nnc1-c1ccc(F)cc1F` (single isomer, unassigned) [Example 39a, N^1-(6-(2,4-difluorophenyl)-5-methyl-1,2,4-triazin-3-yl)-N^3,N^3-dimethylcyclohexane-1,3-diamine] it is 6.04.
The figure for `Cc1nc(NC2CCCC(N(C)C)C2)nnc1-c1ccc(F)cc1F` (single isomer, unassigned) [Example 39b, N^1-(6-(2,4-difluorophenyl)-5-methyl-1,2,4-triazin-3-yl)-N^3,N^3-dimethylcyclohexane-1,3-diamine] is 6.05; for `COc1ccc(-c2cnc(NC3CCC(N(C)C)C3)nc2C)c(F)c1` (single isomer, unassigned) [Example 44a, N^1-(5-(2-fluoro-4-methoxyphenyl)-4-methyl-pyrimidin-2-yl)-N^3,N^3-dimethylcyclopentane-1,3-diamine] it is 7.12; for `COc1ccc(-c2cnc(NC3CCC(N(C)C)C3)nc2C)c(F)c1` (single isomer, unassigned) [Example 44b, N^1-(5-(2-fluoro-4-methoxyphenyl)-4-methyl-pyrimidin-2-yl)-N^3,N^3-dimethylcyclopentane-1,3-diamine] it is 7.06.
